Test results reported in patent US11834424B2, “Compounds useful as chaperone-mediated autophagy modulators” (ALBERT EINSTEIN COLLEGE OF MEDICINE, priority 2018, dated 2023).

Columns and labels:
[1] = tested on: chaperone-mediated autophagy (CMA) in NIH 3T3 fibroblasts; test: Photoswitchable KFERQ-Dendra CMA reporter assay in NIH 3T3 fibroblasts; assay type: cell-based
Protocol: The photoactivatable CMA reporter assay was constructed by inserting a sequence of 21 amino acid of Ribonuclease A bearing the CMA-targeting motif in the N-terminus multicloning site of the photoactivatable protein mCherryl or the photoswitchable protein Dendra 2.
NIH 3T3 fibroblasts were stably transduced with a photoconvertible CMA reporter, KFERQ-Dendra. were photoswitched by exposure to a […] (constant current) LED (Norlux, 405 nm) for 10 minutes and at the desired times fixed in 3% formaldehyde. Test cells were exposed to the indicated concentrations of the compounds for 12 hours (FIG. 3A) or 24 hours (FIG. 3B). Cells were imaged using high content microscopy (Operetta, Perkin Elmer) or by capturing images with an Axiovert 200 fluorescence microscope (Zeiss) with apotome and equipped with a 63/1.4 NA oil objective lens and red (ex. 570/30 nm, em. 615/30 nm), cyan (ex. 365/50 nm and em. 530/45 nm) and green (ex. 475/40 nm and em. 535/45 nm) filter sets (Chroma). Images were acquired with a high-resolution CCD camera after optical sectioning through the apotome. CMA activity measured as the average number of fluorescent puncta (CMA active lysosomes) per cell. Values are expressed relative to values in untreated cells that were assigned an arbitrary value of 1 and are mean of >2,500 cells counted per condition. The S.D. in all instances was <0.01% mean value. Table 2 provides a comparison of compounds CA39.1 and its comparative example CA39 and CA77.01 and its comparative example CA77.

in vitro = settings: for CLint(mic) / Remaining (T = 60 min): 3 μM; for Remaining (T = 60 min): 1 h; for CLint scaled at 3 μM: CLint(liver)
Protocol: Microsome stability was determined in human, rat, and mouse, liver microsomes. Compound at 3 μM final concentration along with 0.5 mg/mL microsome protein and 1 mM NADPH was incubated for 0, 5, 15, 30 and 60 min. As a negative control, test compound was incubated with microsomes in the absence of NADPH. Samples were quenched with methanol and centrifuged for 25 min at 2500 rpm to precipitate proteins. Supernatants were analyzed (N=3) by LC-MS/MS. The In peak area ratio (compound peak area/internal standard peak area) was plotted against time and the gradient of the line determined the elimination rate constant [k=(−1)(slope)].
R^2 is the correlation coefficient of the linear regression for the determination of kinetic constant. T1/2 is the half life and CLint (mic) is the intrinsic clearance. CLint(liver)=CLint (mic)*mg microsomal protein/g liver weight*g liver weight/kg body weight. Liver weight/kg body weight is 20 g/kg for human.

[2] = Pharmacokinetics (plasma and brain levels) in ICR (CD-1) mice; assay type: in vivo; settings: ICR (CD-1) mice
Protocol: ICR (CD-1) male mice were fasted at least three horns and water was available ad libitum before the study. Animals were housed in a controlled environment, target conditions: temperature 18 to 29° C., relative humidity 30 to 70%. Temperature and relative humidity was monitored daily. An electronic time controlled lighting system was used to provide a 12 h light/12 h dark cycle. 3 mice for each indicated time point. ICR (CD-1) mice were administered CA77 at 1 mg/kg i.v. and 30 mg/kg p.o. or CA77.1 at 1 mg/kg i.v. (FIG. 2A) and 10 mg/kg p.o. (FIG. 2B). Three (3) mice were included in each dosage and time group. Mice were sacrificed and plasma and brains were obtained at 0.083, 0.25, 0.50, 1.0, 2.0, 4.0, 8.0, and 24.0 hours after administration and drug concentration determined using LC-MS/MS. Brains were removed, homogenized with a tissue homogenizer in cold 5% w/v BSA in phosphate buffer saline (PBS). A 100 microliter aliquots of brain samples were dispensed in to glass culture tubes and mixed with ethyl acetate (800 μl), vortexed, and centrifuged. The organic layer was transferred to a fresh culture tube, dried under nitrogen, and reconstituted in mobile phase for quantitation. Pharmacokinetic parameters were determined by standard methods using Phoenix WinNonlin 6.3 software.
Tables 3A and 3B provide the concentrations of CA77 in ICR (CD-1) mouse plasma (3A) and mouse brain (3B) following i.v. administration of 1 mg/kg CA77. Table 3C provides the brain/plasma ratio of CA77 following i.v. administration of 1 mg/kg CA77. Shaded cells indicate data not included in statistics due to aberrant value. BLQ=Below Limit of Quantitation.
Tables 5A and 5B provide the concentrations of CA77.1 in ICR (CD-1) mouse plasma (5A) and mouse brain (5B) following i.v. administration of 1 mg/kg CA77.1. Table 5C provides the brain/plasma ratio of CA77.1 following i.v. administration of 1 mg/kg CA77.1. The plasma and brain pharmacokinetic parameters for CA77.1 are provided in Table 6. *—cells contain data not present in the statistics.

[3] = T1/2, human microsomes, 3 μM compound, 0.5 mg/mL protein, 1 mM NADPH

Row | Compound | CMA activity (fluorescent puncta per cell, relative to untreated cells = 1) ([1]; Time 5) | CMA activity (fluorescent puncta per cell, relative to untreated cells = 1) ([1]; Time 10) | CMA activity (fluorescent puncta per cell, relative to untreated cells = 1) ([1]; Time 20) | CMA activity (fluorescent puncta per cell, relative to untreated cells = 1) ([1]; Time 30) | half-life at 3 μM (in vitro; human, microsomes) [min] | CLint(mic) (in vitro; human, microsomes) [µL/min/mg] | Remaining (T = 60 min) (in vitro; human, microsomes) [%] | CLint scaled at 3 μM (in vitro; human, microsomes) [mL/min/kg] | half-life at 3 μM (in vitro; [3]) [min] | further results
1 | Clc1ccc2c(c1)OCC(c1ccc(-c3ccccc3)cc1)=N2 [CA39, 3-([1,1′-biphenyl]-4-yl)-7-chloro-2H-benzo[b][1,4]oxazine, reference compound] | 2.457 | 2.619 | 3.587 | 4.374 | 37.9 | 36.6 | 30.1 | 32.9 | – | –
2 | C[C@]12CC[C@H]3[C@@H](CCC4=CC(=O)CC[C@@]43C)[C@@H]1CC[C@@H]2O [Testosterone] | – | – | – | – | – | – | – | – | 57.5 | –
3 | O=S(=O)(Nc1ccc(-c2cnc3cc(Cl)ccc3n2)cc1)C(F)(F)F [CA77, reference compound] | – | – | – | – | – | – | – | – | – | AUCINF_obs ([2]; i.v. 1 mg/kg): 35.8 ng·h/mL; AUClast ([2]; i.v. 1 mg/kg): 35.3 ng·h/mL; CL_obs ([2]; i.v. 1 mg/kg): 465 mL/min/kg; Cmax ([2]; i.v. 1 mg/kg): 36.2 ng/mL; MRTINF_obs ([2]; i.v. 1 mg/kg): 57.1 min; T1/2 ([2]; i.v. 1 mg/kg): 38.1 min; Tmax ([2]; i.v. 1 mg/kg): 4.98 min; VSS_obs ([2]; i.v. 1 mg/kg): 26.548 L/kg; F % ([2]; p.o. 30 mg/kg vs i.v. 1 mg/kg): 124%; AUCINF_obs ([2]; p.o. 30 mg/kg): 1458 ng·h/mL; AUClast ([2]; p.o. 30 mg/kg): 1317 ng·h/mL; CL_obs ([2]; p.o. 30 mg/kg): 343 mL/min/kg; Cmax ([2]; p.o. 30 mg/kg): 278 ng/mL; MRTINF_obs ([2]; p.o. 30 mg/kg): 238 min; T1/2 ([2]; p.o. 30 mg/kg): 131 min; Tmax ([2]; p.o. 30 mg/kg): 120 min
4 | O=C(O)Cc1ccccc1Nc1c(Cl)cccc1Cl [Diclofenac] | – | – | – | – | 105 | – | – | 94.4 | 15.7 | –
5 | Clc1ccc2nc(-c3ccc(-c4ccccc4)cc3)cnc2c1 [CA39.1, 2-([1,1′-biphenyl]-4-yl)-6-chloroquinoxaline] | 2.107 | 2.233 | 2.605 | 2.925 | > 145 | < 9.6 | 96.0 | < 8.6 | – | –
